Read-outs that look alike come from different tables or passages of the source.
What was measured:
[1] = test system: axenic amastigotes of L. amazonensis; set-up: method as in PMID 25029171; settings: compared with glucantime; cited from earlier work
[2] = test system: L. donovani IRFP axenic amastigotes; experiment: Primary single-concentration screening on axenic amastigotes, growth inhibition at 72 h; type: cell-based, Leishmania donovani; settings: axenic amastigotes; for inhibition at 1 µM / inhibition at 10 µM: Leishmania donovani; for inhibition at 1 µM / Growth Inhibition (%) at 72h, 1 µM_Exp1 / Growth Inhibition (%) at 72h, 1 µM_Exp2: 1 µM; for inhibition at 10 µM / Growth Inhibition (%) at 72h, 10 µM_Exp1 / Growth Inhibition (%) at 72h, 10 µM_Exp2: 10 µM
[3] = Cytotoxicity in HepG2 cells (alamarBlue, 72 h); settings: human
Procedure: (§1) To this end, we calculated SIs from 16 preselected results from the ex vivo system. With this aim, dose–response curves were performed in duplicate across at least three independent experiments using RAW 264.7 mouse macrophages (as a model of host cells harboring amastigotes) and HepG2 (as a model for assessing systemic toxicity).
(§2) To evaluate the safety of the selected compounds, two cell lines were employed: RAW 264.7 (a mouse macrophage-derived cell line) and HepG2 (a human hepatoma cell line). Furthermore, to determine the intestinal tolerance relevant to potential oral administration, mouse intestinal organoids were prepared.
(§3) RAW 264.7 and HepG2 were routinely cultured under standard conditions. RAW 264.7 cells were maintained in RPMI medium (Gibco) supplemented with, 25 mM HEPES, 24 mM NaHCO3, 2 mM L-glutamine, mixture of antibiotics and 10% FBS. HepG2 cells were cultured in DMEM/F-12 (Gibco) and supplemented 10% of FBS. For cytotoxicity assays, 10,000 cells per well were seeded into 96-well plates and incubated overnight at 37 °C with 5% of CO2. Subsequently, 2-fold serial dilutions of the compounds were added and incubated for 72 h. Cell viability using the alamarBlue™ assay according to the manufacturer’s instructions, and fluorescence was measured with a Varioskan™ LUX microplate reader (ThermoFisher Scientific, Waltham, MA, USA). Non-linear regression analyses were performed using SigmaPlot^TM software (version 10.0) to calculate CC50. Data were obtained from at least three independent experiments performed in duplicate.

Leishmania amazonensis = test system: Leishmania amazonensis; set-up: method as in PMID 25029171; settings: cited from earlier work
[4] = test system: L. donovani IRFP intramacrophagic amastigotes; experiment: Dose-response assay on ex vivo infected splenic explants (intramacrophagic amastigotes); type: cell-based, Leishmania donovani; settings: read-out: EC50 Intramacrophagic Amastigotes
[5] = Cytotoxicity in RAW 264.7 cells (alamarBlue, 72 h); settings: mouse
Procedure: as §1, §2, §3

[6] = test system: L. donovani IRFP axenic amastigotes; experiment: Dose-response assay on axenic amastigotes; type: cell-based, Leishmania donovani
Procedure: The objective of the present study was to identify new antileishmanial drug candidates by screening a commercial library of plant-derived alkaloids using a platform based on axenic amastigotes of L. donovani IRFP—the causative agent of VL—genetically modified to emit infrared fluorescence during their viable stage (hereafter referred to as L. donovani IRFP). To this end, single-dose assays at 10 μM and 1 μM, as well as dose–response assays, were performed. Compounds showing significant activity in the initial screening were subsequently clustered according to chemical structure using the DataWarrior tool, and representative compounds were further evaluated in dose response assays against axenic amastigotes.
Female Balb/c mice aged from 6 to 8 weeks were intraperitoneally inoculated with 1.5 × 10^9 infective L. donovani IRFP metacyclic promastigotes. Between 8 and 12 weeks after infection, mice were humanely euthanised and bone marrow was collected from the femurs and tibias of both hind limbs. The bones were cut at both ends, and prewarmed PBS was flushed through the medullary cavity using a syringe fitted with a 27G needle, to extract the bone marrow cells. The resulting cell suspension was filtered through a 100 µm cell strainer and centrifuged at 2500 rpm for 10 min at room temperature. To obtain free amastigotes, the pelleted cells were resuspended within a 75 mL ventilated flask in amastigote culture medium (15 mM KCl; 136 mM KH2PO4; 10 mM K2HPO4.3H2O; 0.5 mM MgSO4.7 H2O; 24 mM NaHCO3; 22 mM glucose; 1 mM glutamine, 1x RPMI 1640 vitamin mix (Sigma-Aldrich, Merck, Darmstadt, Germany), 10 mM folic acid, […], 1x RPMI amino acid mix (Sigma-Aldrich, Merck, Darmstadt, Germany), […], antibiotic mixture, 25 mM MES, 10% FBS (Gibco, ThermoFisher Scientific, Waltham, MA, USA) and incubated at 37 °C in a humidified atmosphere containing 5% CO2 [46].
The efficacy of the selected compounds was assessed by measuring near-infrared fluorescence (700 nm) using an Odyssey Infrared Imaging System (Li-Cor, Lincoln, NE, USA) following the previously described protocols.

[7] = test system: mouse intestinal organoids; experiment: Tolerance of mouse intestinal organoids (alamarBlue); type: cell-based; settings: for CC50: 72 h incubation, Figure S4
From the text: (§4) Mouse intestinal organoids were generated following protocols standardized previously. Briefly, to obtain adult intestine stem cells, C57BL/6 mice were humanely euthanized. A section of the duodenum was excised, rinsed in ice-cold PBS, and cut into small pieces for gentle dissociation using Gentle Cell Dissociation Reagent. Tissue fragments enriched in duodenal crypts and little tissue debris were microscopically selected and resuspended in a 1:1 mixture of Geltrex™ and IntestiCult™ Mouse Medium (Gibco, ThermoFisher Scientific, Waltham, MA, USA /Stemcell Technologies^TM, Vancouver, BC, Canada). Aliquots of 50 µL of this suspension were dispensed into the center of each well of a prewarmed 24-well plate to form domes containing organoids, which were then incubated to allow matrix polymerization. Then, […] of IntestiCult™ Mouse Medium was added to each well. The plate was incubated at 37 °C in a humidified atmosphere containing 5% CO2, and the culture medium was refreshed every 48 h. During this period, organoids continued to proliferate, and passaging was performed at a 1:4 ratio every 7–10 days.
(§5) To determine the in vitro tolerance to oral administration of the active compounds, a 384-well assay was adapted from the protocol described by Du and co-workers. Briefly, following medium removal, organoids were collected from the extracellular matrix using the same procedure as for passaging. The resulting pellet was resuspended in 3.2 mL of a 1:1 mixture of Geltrex™ LDEV-Free Reduced Growth Factor Basement Membrane Matrix (without phenol red, Gibco) and IntestiCult™ Mouse Medium. Using a chilled pipette dispenser, 8 µL of the organoid suspension was dispensed into pre-cooled 384-well plates, which were then gently agitated to evenly distribute the matrix. The plates were incubated at 37 °C for 10 min and then, 32 µL of IntestiCult™ Mouse Medium was added to each well. To prevent edge effects, 100 µL of sterile water was added to the perimeter wells. After 3 days of culture, 10 µL per well of the test compounds dissolved in IntestiCult™ Mouse Medium were added. Positive (0.03% H2O2) and negative (0.2% DMSO) controls were included in each assay. After 72 h of incubation, 5 µL of alamarBlue™ HS were added to each well, and fluorescence was measured after 24 h using a Varioskan™ LUX microplate reader. All assays were conducted in triplicate and repeated in at least three independent experiments.

HepG2 = experiment: Cytotoxicity in HepG2 cells (alamarBlue, 72 h); settings: read-out: CC50 HepG2; 72 h, alamarBlue
Procedure: as §1, §2, §3

RAW 264.7 = experiment: Cytotoxicity in RAW 264.7 cells (alamarBlue, 72 h); settings: read-out: CC50 RAW 264.7; 72 h, alamarBlue
Procedure: as §1, §2, §3

[8] = Tolerance of mouse intestinal organoids (alamarBlue); type: cell-based; settings: C57BL/6, mouse
From the text: as §4, §5

[9] = experiment 1, 72 h, read-out: Growth Inhibition (%) at 72h, 1 µM_Exp1
[10] = experiment 2, 72 h, read-out: Growth Inhibition (%) at 72h, 1 µM_Exp2
[11] = experiment 1, 72 h, read-out: Growth Inhibition (%) at 72h, 10 µM_Exp1
[12] = experiment 2, 72 h, read-out: Growth Inhibition (%) at 72h, 10 µM_Exp2
[13] = Leishmania donovani, Splenocyte, primary cultures of infected mouse splenocytes
[14] = primary cultures of infected mouse splenocytes
[15] = Leishmania donovani, Splenocyte, in Mus musculus
[16] = mouse intestinal organoids (from duodenal crypts), 72 h incubation, Figure S4, read-out: CC50 mouse intestinal organoids

Row | Structure (SMILES) | inhibition at 1 µM [2, 9] [%] | inhibition at 1 µM [2, 10] [%] | inhibition at 10 µM [2, 11] [%] | inhibition at 10 µM [2, 12] [%] | EC50 [4, 13] [nM] | IC50 ([6]; Leishmania donovani) [nM] | CC50 at 72 h ([3]; HepG2 hepatoma cells) [nM] | CC50 at 72 h ([5]; RAW 264.7 macrophage cells) [nM] | Growth Inhibition (%) at 72h, 1 µM_Exp1 ([2]; experiment 1, 72 h) [%] | Growth Inhibition (%) at 72h, 1 µM_Exp2 ([2]; experiment 2, 72 h) [%] | Growth Inhibition (%) at 72h, 10 µM_Exp1 ([2]; experiment 1, 72 h) [%] | Growth Inhibition (%) at 72h, 10 µM_Exp2 ([2]; experiment 2, 72 h) [%] | CC50 (HepG2) [nM] | EC50 [4, 14] [nM] | CC50 (RAW 264.7) [nM] | IC50 [6] [nM] | further results
1 | COc1ccc2c(c[n+](C)c3c4cc5c(cc4ccc23)OCO5)c1OC [Chelerythrine] | 97.2 | 95.7 | 100 | 101 | 1610 ± 50 | 80 ± 10 |  |  |  |  |  |  |  |  |  |  | in vitro IC50 values against axenic amastigotes of L. amazonensis [1]: very similar to those of glucantime; CC50 at 72 h [3]: 5500 ± 640 nM; antileishmanial effect in vivo (Leishmania amazonensis): moderate; CC50 at 72 h [5]: 5510 ± 160 nM
2 | COc1cc2c[n+](C)c3c4cc5c(cc4ccc3c2cc1OC)OCO5 [Nitidine] | 45 | 69.6 | 100 | 99.7 | 650 ± 30 | 270 ± 10 | 490 ± 20 | 2010 ± 160 |  |  |  |  |  |  |  |  | in vitro IC50 values against axenic amastigotes of L. amazonensis [1]: very similar to those of glucantime; antileishmanial effect in vivo (Leishmania amazonensis): moderate
3 | c1c2c(cc3c1OCO3)-c1cc3cc4c(cc3c[n+]1CC2)OCO4 [Pseudocoptisine] |  |  |  |  |  |  |  |  | 65.54 | 88.42 | 97.95 | 99.04 | > 10000 | 1430 ± 70 | > 10000 | 810 ± 120 | CC50 [7]: > 10000 nM
4 | COc1ccc2c(C)c3[n+](cc2c1OC)CCc1cc2c(cc1-3)OCO2 [13-Methylberberine] |  |  |  |  |  |  |  |  | 58.33 | 69.84 | 86.05 | 98.60 | 28300 ± 9180 | 750 ± 20 | > 10000 | 500 ± 40 | CC50 [7]: > 10000 nM
5 | COc1ccc2c(c1OC)C(OC)N(C)c1c-2ccc2cc3c(cc12)OCO3 (stereo not drawn) [Angoline] |  |  |  |  |  |  |  |  | 83.55 | 85.33 | 100.85 | 100.07 | 5150 ± 210 | 1150 ± 40 | 5280 ± 280 | 120 ± 10 | CC50 [7]: 12600 ± 600 nM; Toxicity in mouse intestinal organoids (tolerance for oral administration) ([7]; in words): significant toxicity
6 | C[n+]1cc2c3c(ccc2c2ccc4cc5c(cc4c21)OCO5)OCO3 [Sanguinarine] | 99.7 | 99.5 | 100 | 101 |  | 190 ± 10 | 2080 ± 60 | 1840 ± 60 |  |  |  |  |  |  |  |  | EC50 [4, 15]: 850 ± 30 nM
7 | COc1cc2c(cc1OC)-c1c(C)c3ccc(OC)c(OC)c3c[n+]1CC2 [Dehydrocorydaline] | 19.1 | -42.6 | 81.7 | 88.3 | 2680 ± 110 | 2810 ± 490 | > 10000 | > 10000 |  |  |  |  |  |  |  |  | CC50 at 72 h [8, 16]: > 50000 nM
8 | COc1cc2c3c(cc4ccccc4c3c1OC)N(C)CC2 [Dehydronuciferine] | 86.7 | 77.8 | 100 | 100 | > 50000 | 1230 ± 30 | 25500 ± 5430 | 18600 ± 1110 |  |  |  |  |  |  |  |  | 
9 | CCOC1c2c(ccc3c2OCO3)-c2ccc3cc4c(cc3c2N1C)OCO4 (stereo not drawn) [Ethoxysanguinarine] |  |  |  |  |  |  |  |  | 100.74 | 99.44 | 100.41 | 100.07 | 1440 ± 30 | 840 ± 30 | 1620 ± 110 | 210 ± 30 | 
10 | c1c2c(cc3c1OCO3)-c1cc3ccc4c(c3c[n+]1CC2)OCO4 [Coptisine] |  |  |  |  |  | 2850 ± 250 |  |  |  |  |  |  |  |  |  |  | CC50 at 72 h [8]: > 25000 nM; CC50 at 72 h [3]: > 10000 nM; EC50 [4, 15]: 3390 ± 230 nM; CC50 at 72 h [5]: > 10000 nM
11 | CN1C(=O)/C(=C2/C(=O)Nc3ccccc32)c2ccccc21 [Meisoindigo] | 100 | 100 | 100 | 100 | 9300 ± 520 | 1530 ± 210 | 20400 ± 1400 | 14900 ± 900 |  |  |  |  |  |  |  |  | 
12 | COc1ccc2cc3[n+](cc2c1OC)CCc1cc2c(cc1-3)OCO2 [Berberine] |  |  |  |  | 1760 ± 60 | 570 ± 80 | > 20000 | > 20000 |  |  |  |  |  |  |  |  | CC50 at 72 h [8, 16]: > 25000 nM

Reference: article PMC12608155, “Discovery of Potential Antileishmanial Compounds Through Phenotypic Screening of an Alkaloid Library” (Molecules, 2025)
